From patent publication US20250074894A1, “NITROPHENYL-ACRYLAMIDES AND USES THEREOF” (BROWN UNIVERSITY, priority 2021, published 2025)

Columns and labels:
FTO = FTO (Homo sapiens, UniProt Q9C0B1); assay: FTO activity assay (demethylation of m6A methylated RNA substrate); assay type: biochemical; settings: for inhibition at 20 µM: read-out: reduction of FTO activity / FTO activity inhibition
Description: An FTO activity assay was performed to determine the inhibitory activity of compounds provided herein towards FTO and compare them with entacapone. This assay measures the ability of FTO to demethylate an m6A methylated RNA substrate. The assay is specific to FTO and is not affected by the function of ALKBH5, which is another RNA demethylase in eukaryotic cells.

Glioma stem cells = assay: Glioma stem cell viability, Cell Titer Glo; assay type: cell-based, human; settings: 48 hours
Description: Glioma stem cells were incubated with various increasing concentrations of Compound 31 and the percentage of viable cells at 48 hours was quantified using Cell Titer Glo (Promega). […] For the functional assays described below, the IC10 was used to maintain at least 90% viability.

[1] = tested on: Patient derived glioma stem cells (GSCs); assay: GSC invasion live imaging (Incucyte); assay type: cell-based, human; settings: vs DMSO
Description: GSCs in Matrigel 3D matrix, were treated with 40 µM entacapone or DMSO (control) and live imaging was performed in regular time intervals using the Incucyte live cell imaging system. Normalized area of invasion was quantified following normalization of the invading area with the area occupied by the GSC sphere.
Patient derived glioma stem cells (GSCs) were incubated with 70 μM Compound 31 or DMSO (control) for 72 hours and GSC invasion into the surrounding extracellular matrix was quantified in real time using Incucyte Cell Imager. […] GSC invasion is one of the hallmarks of glioblastoma.

[2] = tested on: diffuse intrinsic pontine glioma (DIPG) cells; assay: Limiting dilution assay (LDA), DIPG cell self-renewal; assay type: cell-based, human; settings: clonal tumor spheres over 2 weeks
Description: A limiting dilution assay (LDA) was used to determine the effect of FTO inhibition with Compound 31 on the self-renewal ability of diffuse intrinsic pontine glioma (DIPG) cells—a type of brain tumor found in an area of the brainstem known as the pons. With this assay DIPG cells are plated on 96-well plates in various numbers (2000 cell per well down to 1 cell per well) and the ability of cells to self-renew and form clonal tumor spheres is measured over a period of 2 weeks.

[3] = tested on: Patient derived DIPG cells; assay: DIPG cell invasion (Incucyte Cell Imager); assay type: cell-based, human; settings: 10 μM, 72 hours, vs DMSO, p<0.05
Description: Patient derived DIPG cells were incubated with 10 μM Compound 31 or DMSO (control) for 72 hours and DIPG invasion into the surrounding extracellular matrix was quantified in real time using Incucyte Cell Imager.

Hela cells = settings: cited from earlier work
[4] = tested on: GSCs from two patients with glioblastoma; assay: In vitro extreme limiting dilution analysis (ELDA), GSC self-renewal; assay type: cell-based, human; settings: 40 μM, 14 days, vs DMSO
Description: To examine whether treatment with Entacapone affects the ability of GSCs to self-renew, serial dilutions of GSCs were cultured from two patients with glioblastoma in the presence of 40 μM entacapone or DMSO (Control) for 14 days.

[5] = tested on: cancer stem cell transcripts in GSCs; assay: qPCR array for 84 cancer stem cell markers in GSCs; assay type: cell-based, human; settings: 40 µM, 48 hours
Description: GSCs were treated with 40 µM entacapone for 48 hours to assess whether entacapone would affect expression of stemness-related transcripts. A qPCR array for 84 validated cancer stem cell markers was performed (Qiagen-RT-profiler PCR arrays).

Notch1 = Notch1 inhibition assay (Western Blot in GSCs); assay type: cell-based, human; settings: 40 µM, 48 hours, two GSC lines
GSC-grafted mice = settings: cited from earlier work

FTO, sequence (Q9C0B1 whole entry, species assumed): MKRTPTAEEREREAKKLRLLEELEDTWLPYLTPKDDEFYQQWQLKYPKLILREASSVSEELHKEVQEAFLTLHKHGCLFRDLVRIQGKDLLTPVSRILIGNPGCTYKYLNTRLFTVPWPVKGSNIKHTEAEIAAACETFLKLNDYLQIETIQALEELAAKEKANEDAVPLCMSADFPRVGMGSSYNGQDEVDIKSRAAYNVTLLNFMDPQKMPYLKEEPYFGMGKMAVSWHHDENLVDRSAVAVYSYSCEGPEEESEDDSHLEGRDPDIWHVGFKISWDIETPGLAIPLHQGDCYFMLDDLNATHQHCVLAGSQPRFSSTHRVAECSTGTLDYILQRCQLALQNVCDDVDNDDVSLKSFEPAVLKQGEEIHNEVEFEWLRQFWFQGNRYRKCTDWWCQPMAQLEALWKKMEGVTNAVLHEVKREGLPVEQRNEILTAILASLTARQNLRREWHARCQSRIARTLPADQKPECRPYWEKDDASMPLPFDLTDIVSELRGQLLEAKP

SMILES: CCN(CCSCCCF)C(=O)/C(C#N)=C/c1cc(O)c(O)c([N+](=O)[O-])c1 [Compound 31]
- FTO inhibitory activity compared to entacapone (FTO): significantly higher FTO inhibitory activity compared to entacapone
- % FTO activity (FTO; 20 μM): 54%
- inhibition at 20 µM (FTO; 20 μM): ≥ 40%
- % FTO activity (FTO; 40 μM): 48%
- IC10, viable cells (Glioma stem cells): 70 µM
- IC50 (Glioma stem cells; Homo sapiens, read-out: IC50, viable cells): 114 µM
- GSC invasion into surrounding extracellular matrix ([1]; 70 μM, 72 hours, p<0.05): significant inhibition of GSC invasion
- self-renewal ability of DIPG cells [2]: significantly inhibits the self-renewal ability of DIPG cells
- DIPG invasion into surrounding extracellular matrix [3]: significant inhibition of DIPG invasion

SMILES: C=CC(=O)Nc1ccc([N+](=O)[O-])cc1 [N-(4-nitrophenyl) acrylamide]
- IC50 (Hela cells): 1000 µM

SMILES: CCN(CC)C(=O)/C(C#N)=C/c1cc(O)c(O)c([N+](=O)[O-])c1 [Entacapone, entacapone, reference compound]
- % FTO activity (FTO; 20 μM): 83%
- inhibition at 20 µM (FTO; 20 μM): < 20%
- % FTO activity (FTO; 40 μM): 61.5%^
- FTO activity inhibition compared with 20 μM compound 31 (FTO; 40 μM): less FTO activity inhibition than 20 UM compound 31
- normalized GSC invasion area ([1]; 40 µM, Matrigel 3D matrix, 66 hours): inhibits invasion of GSCs
- tumor-sphere formation frequency of GSCs [4]: significantly decreased the tumor-sphere formation frequency
- expression of cancer stem cell transcripts [5]: significant inhibition of several cancer stem cell transcripts
- Notch1 protein expression (Notch1): induces inhibition of Notch1 protein expression

SMILES: CCOC(=O)c1ccccc1Nc1c(Cl)ccc(C)c1Cl [ethyl ester of meclofenamic acid]
- lifespan (GSC-grafted mice): substantially prolong lifespan
- tumor progression (GSC-grafted mice): suppress tumor progression

SMILES: CCN(CCN1CC(OC)C1)C(=O)/C(C#N)=C/c1cc(O)c(O)c([N+](=O)[O-])c1 [Compound 1]
- FTO inhibitory activity compared to entacapone (FTO): significantly higher FTO inhibitory activity compared to entacapone
- % FTO activity (FTO; 20 μM): 61%
- inhibition at 20 µM (FTO; 20 μM): ≥ 40%
- % FTO activity (FTO; 40 μM): 59%
